The test system of assay [1] is Human mast cell line LAD cells. Put plainly: Degranulation test using human mast cell line LAD cells. It counts as cell-based. Particulars: IgE-sensitized LAD cells, anti-human IgE stimulation, β-hexosaminidase release, read-out: degranulation inhibitory activity IC50. On the procedure: Human mast cell line LAD cells were sensitized with human IgE (Cosmo Bio; final concentration 1 μg/ml) overnight. The cells were harvested, and then washed with PBS (Invitrogen) and washed again with Tyrode's buffer solution (Sigma) containing 0.1% BSA (Sigma). The cells were seeded into a 96-well plate at 10^5 cells/well and then the compound (0.1% final concentration DMSO solution) was added, followed by incubation at 37° C. for 15 minutes. Rabbit anti-human IgE (Dako Japan; final concentration 10 μg/ml) or control Ig (Dako Japan; final concentration 10 μg/ml) was added, followed by incubation at 37° C. for 30 minutes. The supernatant was recovered and p-nitrophenyl-2-acetamido-2-deoxy-β-D-glucopyranoside (Sigma; final concentration 4 mM), a substrate of β-hexosaminidase which is an index of degranulation, was added, followed by incubation at 37° C. for 45 minutes. Glycine (Wako; final concentration 0.2 M, pH 10.4) was added and the reaction was terminated. Then, the absorbance at 405 nm was measured.
The inhibition rate (%) was calculated as (anti-IgE antibody degranulation rate—compound-added group degranulation rate)/(anti-IgE antibody degranulation rate—control antibody degranulation rate)×100. The IC50 value was calculated from the inhibition rate at each concentration and used as an index of inhibitory activity.

In assay [2] the test system is collagen-induced arthritis. Put plainly: Mouse collagen-induced arthritis (CIA) test. The following applies: male DBA/1 mice, oral administration for 42 consecutive days, arthritis score. The format is in vivo. As to the method:
Seven-week-old male DBA/1 mice were sensitized by intradermal administration of bovine type II collagen/complete Freund's adjuvant emulsion (150 μg/0.1 ml/mouse) to the tail head. 21 days after the primary sensitization, the mice were similarly boosted by intradermal administration of bovine type II collagen/complete Freund's adjuvant emulsion (100 μg/0.1 ml/mouse) to the tail head. After the booster, the degree of arthritis was scored by observation for each extremity twice a week on the following scale. • 0: No arthritis • 1: Edema in one finger joint • 2: Edema in two or more finger joints or instep • 3: Edema in tarsus or ankle • 4: Severe edema or joint deformation Oral administration of the test compound, or only a vehicle as a control, was started 30 minutes prior to the booster, and administration was carried out for 42 consecutive days thereafter. For each day passed, the total score for the extremities was provided as an arthritis score for one individual (0 to 16), and the arthritis onset inhibitory effect was evaluated as an average value for eight cases using the vehicle-administered group as a control group.

Assay [3] addresses T1, Syk (Homo sapiens, UniProt P43405).
T1 construct: purchased Wako Pure Chemical Industries
Put plainly: Syk inhibition test. The following applies: poly(L-glu-L-tyr) substrate, ATP 5 μM, [γ-33P]ATP, 30 minutes room temperature; read-out: Syk inhibitory activity IC50. It counts as biochemical. On the procedure:
10 ng/10 μl/well of a Syk (Wako Pure Chemical Industries) solution, 15 μl of a poly(L-glu-L-tyr) substrate peptide solution (Sigma, final concentration 5 μM), 20 μl of an ATP mixture (ATP: Oriental Yeast, final concentration 5 μM, [γ-33P]ATP: GE Healthcare Biosciences, 0.1 μCi/well) and 5 μl of a test substance solution were added to a 96-well Corning reaction plate, followed by incubation at room temperature for 30 minutes. An assay buffer containing 50 mM Tris pH 7.5, 10 mM MgCl2, 0.1 mM Na3VO4, 1 mM DTT, 0.01% CHAPS and 100 μg/ml BSA was used. The test substance solution was made by dissolving the test substance in DMSO at each concentration. The final concentration of DMSO was 1%. The reaction was terminated by adding 100 μl of a 120 mM phosphoric acid solution as a reaction terminator. Then, the total reaction solution was transferred to MultiScreen (Millipore) and washed with 200 μl of 100 mM phosphoric acid four times.
After drying, 20 μl of MicroScint-O (PerkinElmer) was added and the radioactivity was measured by TopCount (PerkinElmer). The ratio of the radioactivity when the test substance was added to the radioactivity when the test substance was not added was determined. The IC50 value was calculated from the inhibition rate at each concentration and used as an index of inhibitory activity.

In assay [4] the target is T2, Abl (Homo sapiens, UniProt P00519).
T2 construct: purchased Wako Pure Chemical Industries
Put plainly: Abl inhibition test. It counts as biochemical. The following applies: Abltide substrate, ATP 6 μM, [γ-33P]ATP, 40 minutes room temperature; read-out: Abl inhibitory activity IC50. As to the method:
5 ng/5 μl/well of an Abl (Wako Pure Chemical Industries) solution, 30 μl of an Abltide substrate peptide solution (Wako Pure Chemical Industries; final concentration 5 μM) and 5 μl of a test substance solution were added to a 96-well plate (Corning), followed by incubation at room temperature for 15 minutes. Then, 10 μl of an ATP mixture (ATP: Oriental Yeast, final concentration 6 μM, [γ-33P]ATP: GE Healthcare Biosciences, 0.06 μCi/well, MgAcetate: Cosmo Bio, final concentration 10 mM) was added, followed by incubation at room temperature for 40 minutes. The Abl solution was prepared using a kinase buffer (20 mM MOPS pH 7.0, 1 mM EDTA, 0.1% β-mercaptoethanol, 0.01% Brij-35, 5% glycerol, 1 mg/ml BSA). The substrate peptide solution and the ATP mixture were prepared using 8 mM MOPS pH 7.0 and 0.2 mM
EDTA. The test substance solution was made by dissolving the test substance in DMSO at each concentration. The final concentration of DMSO was 1%. The reaction was terminated by adding 100 μl of a 100 mM phosphoric acid solution as a reaction terminator. Then, the total reaction solution was transferred to a 96-well MultiScreen plate (Millipore) and washed with 200 μl of 100 mM phosphoric acid three times. After drying, 20 μl of MicroScint-O (PerkinElmer) was added and the radioactivity was measured by TopCount (PerkinElmer). After subtracting the radioactivity in the well to which the Abltide substrate peptide was not added from each radioactivity, the ratio of the radioactivity when the test substance was added to the radioactivity when the test substance was not added was determined. The IC50 value was calculated from the inhibition rate at each concentration and used as an index of inhibitory activity.

In assay [5] the test system is PCA reaction. Put plainly: Rat passive cutaneous anaphylaxis (PCA) test. The format is in vivo. The following applies: male Wistar rats, oral administration four hours prior to antigen challenge, blue spot area. As to the method: The back of seven-week-old male Wistar rats was clipped under light anesthesia with ether, and the rats were sensitized by intradermal administration of 100 μl of 25 ng/ml anti-dinitrophenyl-IgE (DNP-IgE) (Sigma) to the back. 24 hours after the sensitization, 1 ml of a 0.5% Evans blue solution containing 1 mg of DNP-BSA was intravenously administered. Further, 30 minutes after the administration, the rats were sacrificed and the back skin was collected. The test compound, or only a vehicle as a control, was orally administered four hours prior to the antigen challenge. The length and breadth of the skin blue spot were calipered, and the area of the blue spot was calculated as length×breadth. The PCA inhibition rate by the test substance was calculated by the following formula. In the formula, • C represents: a blue spot area by PCA reaction when only the vehicle was administered, and • X represents: a blue spot area by PCA reaction when the test compound was administered. Inhibition rate (%)=(C−X)×100/C

The structures appear in SMILES notation.

T2 sequence (P00519 whole entry, species assumed): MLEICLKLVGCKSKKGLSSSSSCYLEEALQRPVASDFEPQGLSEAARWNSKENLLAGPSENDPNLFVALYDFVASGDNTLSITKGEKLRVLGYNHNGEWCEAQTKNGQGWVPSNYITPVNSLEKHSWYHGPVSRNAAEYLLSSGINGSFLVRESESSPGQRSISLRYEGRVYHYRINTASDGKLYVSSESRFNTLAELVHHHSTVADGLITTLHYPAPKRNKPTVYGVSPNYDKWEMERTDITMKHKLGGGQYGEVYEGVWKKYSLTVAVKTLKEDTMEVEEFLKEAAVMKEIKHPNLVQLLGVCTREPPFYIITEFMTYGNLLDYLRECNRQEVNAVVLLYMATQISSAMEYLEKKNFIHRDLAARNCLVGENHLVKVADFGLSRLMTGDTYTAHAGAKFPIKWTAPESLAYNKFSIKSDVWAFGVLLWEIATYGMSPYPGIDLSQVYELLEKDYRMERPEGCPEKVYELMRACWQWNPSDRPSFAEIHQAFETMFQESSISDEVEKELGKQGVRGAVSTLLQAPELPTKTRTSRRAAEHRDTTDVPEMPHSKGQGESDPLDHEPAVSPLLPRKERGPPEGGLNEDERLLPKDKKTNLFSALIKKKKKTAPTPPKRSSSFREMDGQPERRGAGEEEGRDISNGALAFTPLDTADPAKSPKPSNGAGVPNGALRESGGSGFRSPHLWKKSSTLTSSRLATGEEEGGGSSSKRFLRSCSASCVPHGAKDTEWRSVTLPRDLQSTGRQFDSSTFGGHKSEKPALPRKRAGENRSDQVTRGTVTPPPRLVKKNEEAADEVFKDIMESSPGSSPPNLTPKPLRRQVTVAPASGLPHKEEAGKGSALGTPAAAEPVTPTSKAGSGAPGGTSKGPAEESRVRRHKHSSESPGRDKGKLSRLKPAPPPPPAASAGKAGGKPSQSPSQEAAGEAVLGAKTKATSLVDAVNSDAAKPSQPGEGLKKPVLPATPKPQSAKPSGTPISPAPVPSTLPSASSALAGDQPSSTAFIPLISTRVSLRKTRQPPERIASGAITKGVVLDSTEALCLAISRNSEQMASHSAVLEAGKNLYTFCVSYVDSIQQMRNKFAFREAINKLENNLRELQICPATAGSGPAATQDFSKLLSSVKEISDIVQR

On to `CS(=O)(=O)c1n[nH]c2nc(Nc3ccc(N4CCOCC4)cc3)nc(NC3CC3)c12` [Compound 7], for which the IC50 in assay [1] was 24 nM. In assay [2], the “inhibition of the onset of arthritis in the CIA model” value is recorded as “excellently inhibited the onset of arthritis”.
For the molecule `CS(=O)(=O)c1n[nH]c2nc(Nc3ccc(N4CCOCC4)cc3)nc(NC3CC3)c12` [Compound 6, N^4-Cyclopropyl-3-(methylsulfonyl)-N^6-(4-morpholin-4-ylphenyl)-1H-pyrazolo[3,4-d]pyrimidine-4,6-diamine], the figures for the IC50 in assay [3] and in assay [4] were 160 nM and not above 50 nM, respectively. Moreover, the “inhibition of PCA reaction” value in assay [5] was “excellently inhibited PCA reaction”.
As to `CN(C)C(=O)C1CCN(c2ccc(Nc3nc(NC4CC4)c4c(S(C)(=O)=O)n[nH]c4n3)cc2)CC1` [Compound 128], the IC50 in assay [3] was not above 200 nM; in assay [4], not above 50 nM; in assay [1], not above 100 nM.
The like results for `CSc1n[nH]c2nc(Nc3ccc(N4CCOCC4)cc3)nc(N[C@H]3CC[C@@H](N)CC3)c12` [Compound 112] were, in that order, 20 nM, not above 10 nM and 19 nM.
Regarding `CN1CCN(c2ccc(Nc3nc(NC4CC4)c4c(S(C)(=O)=O)n[nH]c4n3)cc2)CC1` [Compound 131, N^4-Cyclopropyl-N^6-[4-(4-methylpiperazin-1-yl)phenyl]-3-(methylsulfonyl)-1H-pyrazolo[3,4-d]pyrimidine-4,6-diamine], the concentration for half-maximal inhibition (IC50) was not above 200 nM in assay [3], not above 10 nM in assay [4] and not above 100 nM in assay [1].
For `CS(=O)(=O)c1n[nH]c2nc(Nc3ccc(N4CCCC(C(=O)N5CCOCC5)C4)cc3)nc(NC3CC3)c12` (centres unmarked) [Compound 143], in that order: not above 200 nM, not above 10 nM and not above 100 nM.

The values above are taken from patent US20100298557A1, “PYRAZOLOPYRIMIDINE COMPOUND” (Taisho Pharmaceutical Co., Ltd, priority 2006, published 2010).
